# Laboratory results as given in patent publication US9221810B2, “Substituted bicyclic aromatic compounds as S-nitrosoglutathione reductase inhibitors” (Nivalis Therapeutics, Inc., priority 2010, dated 2015).
# Molecular target: T1, GSNOR (Homo sapiens, UniProt P11766)
# T1 construct: made in house; host or cells: E. coli (arabinose-induced)
# Test: GSNOR assay (inhibition of GSNOR activity, NADH absorbance at 340 nm)
# Type: biochemical
# Conditions: printed as 'about <'; 0.240 mM GSNO, 0.300 mM NADH, pH 7.4, 25° C.
# Description: GSNOR expression and purification is described in Biochemistry 2000, 39, 10720-10729.
# GSNOR Fermentation: Pre-cultures were grown from stabs of a GSNOR glycerol stock in 2XYT media containing 100 ug/ml ampicillin after an overnight incubation at 37° C. Cells were then added to fresh 2XYT (4 L) containing ampicillin and grown to an OD (A600) of 0.6-0.9 at 37° C. before induction. GSNOR expression was induced with 0.1% arabinose in an overnight incubation at 20° C.
# GSNOR Purification: E. coli cell paste was lysed by nitrogen cavitation and the clarified lysate purified by Ni affinity chromatography on an AKTA FPLC (Amersham Pharmacia). The column was eluted in 20 mM Tris pH 8.0/250 mM NaCl with a 0-500 mM imidazole gradient. Eluted GSNOR fractions containing the Smt-GSNOR fusion were digested overnight with Ulp-1 at 4° C. to remove the affinity tag then re-run on the Ni column under the same conditions. GSNOR was recovered in the flowthrough fraction and for crystallography is further purified by Q-Sepharose and Heparin flowthrough chromatography in 20 mM Tris pH 8.0, 1 mM DTT, 10 uM ZnSO4.
# GSNOR Assay: GSNO and enzyme/NADH Solutions are made up fresh each day. The solutions are filtered and allowed to warm to room temperature. GSNO solution: 100 mM NaPO4 (pH 7.4), 0.480 mM GSNO. 396 μL of GSNO Solution is added to a cuvette followed by 8 μL of test compound in DMSO (or DMSO only for full reaction control) and mixed with the pipette tip. Compounds to be tested are made up at a stock concentration of 10 mM in 100% DMSO. 2 fold serial dilutions are done in 100% DMSO. 8 μL of each dilution are added to an assay so that the final concentration of DMSO in the assay is 1%. The concentrations of compounds tested range from 100 to 0.003 μM. Enzyme/NADH solution: 100 mM NaPO4 (pH 7.4), 0.600 mM NADH, 1.0 μg/mL GSNO Reductase. 396 μL of the Enzyme/NADH solution is added to the cuvette to start the reaction. The cuvette is placed in the Cary 3E UV/Visible Spectrophotometer and the change in 340 nm absorbance/min at 25° C. is recorded for 3 minutes. The assays are done in triplicate for each compound concentration. IC50's for each compound are calculated using the standard curve analysis in the Enzyme Kinetics Module of SigmaPlot.
# Final assay conditions: 100 mM NaPO4, pH 7.4, 0.240 mM GSNO, 0.300 mM NADH, 0.5 μg/mL GSNO Reductase, and 1% DMSO. Final volume: 800 μL/cuvette.
# T1 sequence (P11766 whole entry): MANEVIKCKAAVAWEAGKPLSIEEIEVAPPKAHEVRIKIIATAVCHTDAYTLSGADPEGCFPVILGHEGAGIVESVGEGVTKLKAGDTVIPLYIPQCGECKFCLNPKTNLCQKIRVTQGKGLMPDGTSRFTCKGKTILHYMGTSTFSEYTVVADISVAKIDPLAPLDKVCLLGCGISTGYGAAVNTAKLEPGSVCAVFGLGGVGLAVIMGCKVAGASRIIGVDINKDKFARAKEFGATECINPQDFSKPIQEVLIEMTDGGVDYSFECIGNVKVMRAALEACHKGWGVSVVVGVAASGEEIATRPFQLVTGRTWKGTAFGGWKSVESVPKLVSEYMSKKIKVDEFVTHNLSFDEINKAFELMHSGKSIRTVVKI
row,IC50 [nM],Compound
1,< 500,"O=C(O)[C@H]1CC[C@H](c2ccc3cc(O)ccc3n2)CC1 [Example 6, (1r,4r)-4-(6-hydroxyquinolin-2-yl)cyclohexanecarboxylic acid]"
2,< 100,"O=C(O)c1ccc(-c2ccc3cc(O)ccc3n2)c(C(F)(F)F)c1 [Example 30, 4-(6-hydroxyquinolin-2-yl)-3-(trifluoromethyl)benzoic acid]"
3,< 100,"O=C(O)c1ccc(-c2nc3ccc(O)cc3cc2C(F)(F)F)cc1 [Example 31, 4-(6-hydroxy-3-(trifluoromethyl)quinolin-2-yl)benzoic acid]"
4,< 100,"O=C(O)c1ccc(-c2cc(F)c3cc(O)ccc3n2)c(Cl)c1 [Example 37, 3-chloro-4-(4-fluoro-6-hydroxyquinolin-2-yl)benzoic acid]"
5,< 100,"O=C(O)[C@H]1CC[C@H](c2nc3ccc(O)cc3cc2C(F)(F)F)CC1 [Example 43, (1r,4r)-4-(6-hydroxy-3-(trifluoromethyl)quinolin-2-yl)cyclohexanecarboxylic acid]"
6,< 100,"O=C(O)c1ccc(-c2ncc3cc(O)ccc3n2)cc1 [Example 45, 4-(6-hydroxyquinazolin-2-yl)benzoic acid]"
7,< 100,"O=C(O)c1ccc(-c2cc3ccc(O)cc3cn2)c(F)c1 [Example 65, 3-fluoro-4-(7-hydroxyisoquinolin-3-yl)benzoic acid]"

# Test system: not listed separately
# Test: Mouse pharmacokinetic (PK) study
# Type: in vivo, male BALB/c mice
# Conditions: male, BALB/c, plasma, po, 10 mg/kg, IV 2 mg/kg, read-out: oral bioavailability (% F)
# Source text: The mouse was used to determine the pharmacokinetics of compounds of the invention. This species is widely used to assess the bioavailability of compounds by administering both oral (PO) and intravenous (IV) test articles. Efficacy of the compounds of the invention was compared by assessing plasma exposure in male BALB/c mice either via IV or PO administration at the times of peak activity.
# Compounds of the invention were reconstituted in a phosphate buffered saline (PBS)/10% Solutol (HS 15) clear solution resulting in a concentration of 0.2 mg/mL and administered to mice (2 mg/kg) as a single IV dose. Animals were dosed via the lateral tail vein. Blood samples were collected at designated time points (0.083, 0.25, 0.5, 1, 2, 4, 8, 16, 24 hours) by cardiac puncture under isoflurane anesthesia (up to 1 mL blood per animal). The blood was collected into tubes containing Li-Heparin. The blood samples were kept on ice until centrifugation within approximately 30 minutes of collection. The plasma was transferred into labeled polypropylene tubes and frozen at −70° C. until analyzed by LC/MS/MS.
# The compounds of the invention were reconstituted in 40% Propylene Glycol/40% Propylene Carbonate/20% of a 5% Sucrose clear solution resulting in a concentration of 2 mg/mL and administered to mice (10 mg/kg) as a single oral dose via gavage. Blood samples were collected at 0.25, 0.5, 1, 2, 4, 8, 12, 16, 20 and 24 hours post dose by cardiac puncture under isoflurane anesthesia. The blood was collected in tubes containing Li-Heparin. […] The plasma was transferred into labeled polypropylene tubes and frozen at −70° C. until analyzed by LC/MS/MS.
# Plasma samples at each timepoint were analyzed using a LC-MS/MS with a lower limit of quantification (LLOQ) of 1 ng/mL. Plasma was analyzed to determine the amount of the compound of the invention in each sample and regression curves generated for each compounds of the invention in the relevant matrixes. […]
# In addition to the above PK parameters, bioavailability (% F) was calculated.
row,Compound,bioavailability [%]
1,"O=C(O)c1ccc(-c2nc3ccc(O)cc3cc2Cl)cc1 [Example 19, 4-(3-chloro-6-hydroxyquinolin-2-yl)benzoic acid]",> 9
2,"O=C(O)c1ccc(-c2nc3ccc(O)cc3cc2Cl)c(F)c1 [Example 28, 4-(3-chloro-6-hydroxyquinolin-2-yl)-3-fluorobenzoic acid]",> 9

# Test system: acute dextran sodium sulfate (DSS)-induced IBD
# Test: Acute prophylactic model of DSS-induced IBD in mice
# Type: in vivo, male C57Bl/6 mice
# Conditions: oral 10 mg/kg/day for 10 consecutive days, prophylactic
# Source text: Acute and chronic models of dextran sodium sulfate (DSS)-induced IBD in mice were used to explore efficacy of GSNORi against this disease. Acute and chronic DSS-induced IBD are widely used and well characterized models that induce pathological changes in the colon similar to those observed in the human disease. In these models and in human disease, epithelial cells within the crypts of the colon are disrupted, leading to dysfunction of the epithelial barrier and the ensuing tissue inflammation, edema, and ulceration. GSNORi therapy may benefit IBD by restoring s-nitrosoglutathione (GSNO) levels, and thus prevent or reverse the epithelial barrier dysfunction. Experimental IBD was induced by administration of DSS in the drinking water of male C57Bl/6 mice (N=8 to 10 mice per group) for 6 consecutive days. GSNORi was dosed orally at doses of 0.1 to 10 mg/kg/day for 10 days starting two days prior to and continuing two days post DSS exposure. Two days post DSS exposure, the effect of GSNORi was assessed in a blinded fashion via endoscopy and histopathology using a five point scale ranging from a score=0 (normal tissue) through a score=4 (ulcerative tissue damage and marked pathological changes). Levels of circulating cytokines involved in inflammatory pathways were also assessed. The effect of GSNORi was compared to vehicle treated controls. The corticosteroid, prednisolone, was used as the positive control in this study and was administered daily at 3 mg/kg/day via oral dosing. Naïve mice (N=5) were also assessed as a normal tissue control.
row,Compound,decrease of percent of mice with severe colon injury scores via endoscopy
1,"O=C(O)c1ccc(-c2nc3ccc(O)cc3cc2Cl)cc1 [Example 19, 4-(3-chloro-6-hydroxyquinolin-2-yl)benzoic acid]",31 % of vehicle control

# Test system: cigarette smoke-induced COPD (subchronic 11 day)
# Test: Subchronic (11 day) cigarette smoke exposure COPD model
# Type: in vivo, female C57Bl/6 mice
# Conditions: subchronic 11 day model; roflumilast 5 mg/kg/day
# Description: The efficacy of GSNOR inhibitors was assessed in a mouse model of chronic obstructive pulmonary disease (COPD) induced by short duration (4 days or 11 days) of exposure to cigarette smoke. Infiltration of inflammatory cells into the bronchoalveolar lavage fluid (BALF) and BALF levels of chemokines involved in inflammation and tissue turnover/repair were measured to assess the influences of GSNOR inhibitors on some of the early events associated with the initiation and progression of COPD.
# Efficacy of GSNOR inhibitors against COPD was explored using acute (4 day) and subchronic (11 day) models of cigarette smoke-induced COPD in mice. […] In animal models, changes in lung pathology are only evident after extended (several months) duration of exposure to cigarette smoke, thus making chronic models prohibitive as effective screening tools. More recently, models exploring inflammatory responses after short duration (2 weeks or less) of smoke exposure in mice have been utilized as tools for screening efficacy and mechanisms of action of novel therapeutics against COPD. The key roles of inflammation in the initiation and progression of COPD, make these short duration models relevant for initial tests of efficacy of novel therapeutics.
# Subchronic (11 Day) Smoke Exposure Model: Female C57Bl/6 mice (N=10 per group) were exposed to cigarette smoke generated from Marlboro 100 cigarettes without filters. Exposure times were 25 min. on study day 1, 35 min. on study day 2, and 45 min. on study days 3 to 11. GSNOR inhibitors were administered one hour prior to smoke exposure on each day. GSNOR inhibitors were dosed orally at 1 to 10 mg/kg/day for 11 days. The effects of GSNOR inhibitors were assessed by quantitating the number of total cells, and leukocytes differentials in the BALF via light microscopy at 24 h after the last exposure. The effect of GSNOR inhibitors were compared to vehicle treated controls and expressed as percent inhibition of the cigarette smoke induced increases in BALF cell numbers. Roflumilast was used as the positive control for the study and was dosed at 5 mg/kg/day. A group of naïve mice (N=10) was exposed to air and dosed with vehicle as a negative control for the study.
row,Compound,effects compared to roflumilast (positive control)
1,"O=C(O)c1ccc(-c2ccc3cc(O)ccc3n2)c(F)c1 [Example 13, 3-fluoro-4-(6-hydroxyquinolin-2-yl)benzoic acid]",comparable to those of roflumilast
2,"Cc1cc(C(=O)O)ccc1-c1ccc2cc(O)ccc2n1 [Example 27, 4-(6-hydroxyquinolin-2-yl)-3-methylbenzoic acid]",comparable to those of roflumilast
